# Data: patent US20250186437A1, “CARBOLINE COMPOUNDS AND USE THEREOF” (PTC Therapeutics, Inc., priority 2021, published 2025)
# Experiments:
# MOLM-13 cells [1] = experiment: MOLM-13 Cell Proliferation Assay (indicator of DHODH inhibition); format: cell-based; details: Homo sapiens, 72 Hours of culture, CellTiter-Glo, no uridine
# Procedure, shortened: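 Proliferation readout via CellTiter-Glo luminescence after 72 h compound treatment (37 °C, 5% CO2, 0.5% DMSO) of MOLM-13 cells seeded at 10^4 per well in RPMI 1640/10% FBS, used as a DHODH-inhibition indicator since these cells rely on de novo pyrimidine synthesis.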
# MOLM-13 cells [2] = experiment: MOLM-13 Uridine Rescue Assay; format: cell-based; details: Homo sapiens; MOLM-13 cell proliferation with 100 μM Uridine added, 72 Hours of culture
# Procedure: The following assay was conducted to measure proliferation of MOLM-13 cells in the presence of each compound studied. This assay was included as an indicator of DHODH inhibition, as growth of MOLM-13 cells is known to depend on synthesis of pyrimidines using the de novo pathway, which can be blocked by inhibition of DHODH. • 1. MOLM-13 cells were cultured in RPMI 1640 medium+10% Fetal Bovine Serum (FBS). Only low passage cells (<20) were used for the compound tests • 2. On day 1, Log-phase growing Molm-13 Cells were counted and diluted to 10^5 cells/mL in RPMI 1640 medium+10% FBS • 3. 100 μL of diluted MOLM-13 cells in 96 well white plates were seeded, for a final density of 10^4 cells/well. • 4. 0.5 μL of pre-diluted 200× compounds or DMSO control was added to each well. The final DMSO concentration was 0.5%. • 5. After 72 Hours of culture at 37° C., 5% CO2, the plates were taken out and cooled to RT, then 50 μL CellTiter-Glo® (Promega) was added, and the composition was mixed at RT for 10 minutes. • 6. The plates were then read by ViewLux (Speed-fast, Gain-High, Bining-1X, 5 seconds).
# Several compounds were also tested in a Uridine rescue assay. In the Uridine rescue assay, using the procedure in Example 1 above, an additional plate of MOLM-13 cell cultures was prepared, to which 100 μM of Uridine was added in step 3 of the process.
Compound,IC50 (MOLM-13 cells [1]) [nM],IC50 (MOLM-13 cells [2]) [µM]
"Cc1ccc(C2c3[nH]c4ccc(Cl)cc4c3CCN2c2nc(C)cc(C(F)(F)F)n2)cc1 (stereo not drawn) [Compound 361, 6-chloro-1-(4-methylphenyl)-2-[4-methyl-6-(trifluoromethyl)pyrimidin-2-yl]-2,3,4,9-tetrahydro-1H-pyrido[3,4-b]indole]",1.8,22.1
"Cc1cc(C#N)nc(N2CCc3c([nH]c4ccc(Cl)cc34)C2c2cnc(N3CCOCC3)nc2)n1 (stereo not drawn) [Compound 362, 2-{6-chloro-1-[2-(morpholin-4-yl)pyrimidin-5-yl]-1,3,4,9-tetrahydro-2H-pyrido[3,4-b]indol-2-yl}-6-methylpyrimidine-4-carbonitrile]",4.3,6.81
"Nc1cc2[nH]c3c(c2cc1Cl)CCN(c1nccc(C(F)(F)F)n1)C3c1cnc(N2CCOCC2)nc1 (stereo not drawn) [Compound 311, 6-chloro-1-[2-(morpholin-4-yl)pyrimidin-5-yl]-2-[4-(trifluoromethyl)pyrimidin-2-yl]-2,3,4,9-tetrahydro-1H-pyrido[3,4-b]indol-7-amine]",2.1,8.47
"Cc1nc(C)nc(N2CCc3c([nH]c4ccc(Cl)cc34)C2c2ccc(N3CCOCC3)nc2)n1 (stereo not drawn) [Compound 324, 6-chloro-2-(4,6-dimethyl-1,3,5-triazin-2-yl)-1-[6-(morpholin-4-yl)pyridin-3-yl]-2,3,4,9-tetrahydro-1H-pyrido[3,4-b]indole]",13.4,9.72
"Cc1ccc(C2c3[nH]c4ccc([N+](=O)[O-])cc4c3CCN2c2nccc(C(F)(F)F)n2)cc1 (stereo not drawn) [Compound 265, 1-(4-methylphenyl)-6-nitro-2-[4-(trifluoromethyl)pyrimidin-2-yl]-2,3,4,9-tetrahydro-1H-pyrido[3,4-b]indole]",3,10.7
"Cc1ccc(C2c3[nH]c4ccc(Cl)cc4c3CCN2c2nc(C)nc(C)n2)cc1 (stereo not drawn) [Compound 355, 6-chloro-2-(4,6-dimethyl-1,3,5-triazin-2-yl)-1-(4-methylphenyl)-2,3,4,9-tetrahydro-1H-pyrido[3,4-b]indole]",11.7,5.66
"Cc1cc(C)nc(N2CCc3c([nH]c4ccc(Cl)cc34)C2c2ccc(N3CCOCC3)nc2)n1 (stereo not drawn) [Compound 350, 6-chloro-2-(4,6-dimethylpyrimidin-2-yl)-1-[6-(morpholin-4-yl)pyridin-3-yl]-2,3,4,9-tetrahydro-1H-pyrido[3,4-b]indole]",4.8,14.9
"FC(F)(F)c1ccnc(N2CCc3c([nH]c4ccc(-n5nccn5)cc34)C2c2cnc(N3CCOCC3)nc2)n1 (stereo not drawn) [Compound 288, 1-[2-(morpholin-4-yl)pyrimidin-5-yl]-6-(2H-1,2,3-triazol-2-yl)-2-[4-(trifluoromethyl)pyrimidin-2-yl]-2,3,4,9-tetrahydro-1H-pyrido[3,4-b]indole]",4.6,11.4
"N#Cc1ccnc(N2CCc3c([nH]c4ccc(Cl)cc34)C2c2ccc(N3CCOCC3)nc2)n1 (stereo not drawn) [Compound 356, 2-{6-chloro-1-[6-(morpholin-4-yl)pyridin-3-yl]-1,3,4,9-tetrahydro-2H-pyrido[3,4-b]indol-2-yl}pyrimidine-4-carbonitrile]",4.6,6.96
"N#Cc1ccnc(N2CCc3c([nH]c4ccc(Cl)cc34)C2c2cnc(N3CCOCC3)nc2)n1 (stereo not drawn) [Compound 359, 2-{6-chloro-1-[2-(morpholin-4-yl)pyrimidin-5-yl]-1,3,4,9-tetrahydro-2H-pyrido[3,4-b]indol-2-yl}pyrimidine-4-carbonitrile]",8,5.67
"Cc1ccc([C@H]2c3[nH]c4ccc(Cl)cc4c3CCN2c2ncnc(C(F)(F)F)n2)cc1 [Compound 418, (1S)-6-chloro-1-(4-methylphenyl)-2-[4-(trifluoromethyl)-1,3,5-triazin-2-yl]-2,3,4,9-tetrahydro-1H-pyrido[3,4-b]indole]",2,14.9

# Compounds with a lower IC50 (MOLM-13 cells [1]), results first:
IC50 (MOLM-13 cells [1]) [nM],IC50 (MOLM-13 cells [2]) [µM],Compound
1.2,11,"FC(F)(F)c1ccnc(N2CCc3c([nH]c4ccc(Cl)cc34)[C@@H]2c2cnc(N3CCOCC3)nc2)n1 [Compound 408, (1S)-6-chloro-1-[2-(morpholin-4-yl)pyrimidin-5-yl]-2-[4-(trifluoromethyl)pyrimidin-2-yl]-2,3,4,9-tetrahydro-1H-pyrido[3,4-b]indole]"
1.2,2,"Cc1nc(C)nc(N2CCc3c([nH]c4c(O)cc(Cl)cc34)C2c2ccc(C)c(F)c2F)n1 (stereo not drawn) [Compound 348, 6-chloro-1-(2,3-difluoro-4-methylphenyl)-2-(4,6-dimethyl-1,3,5-triazin-2-yl)-2,3,4,9-tetrahydro-1H-pyrido[3,4-b]indol-8-ol]"
1.1,2.77,"Cc1nc(C)nc(N2CCc3c([nH]c4ccc(Cl)cc34)[C@@H]2c2ccc(C)c(F)c2F)n1 [Compound 347, (1S)-6-chloro-1-(2,3-difluoro-4-methylphenyl)-2-(4,6-dimethyl-1,3,5-triazin-2-yl)-2,3,4,9-tetrahydro-1H-pyrido[3,4-b]indole]"
1.1,19.3,"Cc1ccc(C2c3[nH]c4c(N)cc(Cl)cc4c3CCN2c2nccc(C(F)(F)F)n2)cc1 (stereo not drawn) [Compound 231, 6-chloro-1-(4-methylphenyl)-2-[4-(trifluoromethyl)pyrimidin-2-yl]-2,3,4,9-tetrahydro-1H-pyrido[3,4-b]indol-8-amine]"
1.1,17.5,"Cc1ccc(C2c3[nH]c4ccc(Cl)c(F)c4c3CCN2c2nccc(C(F)(F)F)n2)c(F)c1F (stereo not drawn) [Compound 197, 6-chloro-1-(2,3-difluoro-4-methylphenyl)-5-fluoro-2-[4-(trifluoromethyl)pyrimidin-2-yl]-2,3,4,9-tetrahydro-1H-pyrido[3,4-b]indole]"
0.9,20.9,"Cc1ccc(C2c3[nH]c4ccc(Br)cc4c3CCN2c2nccc(C(F)(F)F)n2)cc1 (stereo not drawn) [Compound 264, 6-bromo-1-(4-methylphenyl)-2-[4-(trifluoromethyl)pyrimidin-2-yl]-2,3,4,9-tetrahydro-1H-pyrido[3,4-b]indole]"
0.5,5.64,"CN1CCN(c2ncc([C@H]3c4[nH]c5ccc(Cl)cc5c4CCN3c3nc(C(F)(F)F)cc(C(F)(F)F)n3)cn2)CC1 [Compound 419, (1S)-2-[4,6-bis(trifluoromethyl)pyrimidin-2-yl]-6-chloro-1-[2-(4-methylpiperazin-1-yl)pyrimidin-5-yl]-2,3,4,9-tetrahydro-1H-pyrido[3,4-b]indole]"
0.4,12.4,"Cc1ccc([C@H]2c3[nH]c4ccc(Cl)cc4c3CCN2c2nccc(C(F)(F)F)n2)c(F)c1F [Compound 233, (1S)-6-chloro-1-(2,3-difluoro-4-methylphenyl)-2-[4-(trifluoromethyl)pyrimidin-2-yl]-2,3,4,9-tetrahydro-1H-pyrido[3,4-b]indole]"
0.4,3.12,"CN1CCN(c2ncc([C@H]3c4[nH]c5ccc(Cl)cc5c4CCN3c3nc(C(F)(F)F)nc(C(F)(F)F)n3)cn2)CC1 [Compound 420, (1S)-2-[4,6-bis(trifluoromethyl)-1,3,5-triazin-2-yl]-6-chloro-1-[2-(4-methylpiperazin-1-yl)pyrimidin-5-yl]-2,3,4,9-tetrahydro-1H-pyrido[3,4-b]indole]"
0.3,14.2,"FC(F)(F)c1cc(C(F)(F)F)nc(N2CCc3c([nH]c4ccc(Cl)cc34)[C@@H]2c2cnc(N3CCOCC3)nc2)n1 [Compound 410, (1S)-2-[4,6-bis(trifluoromethyl)pyrimidin-2-yl]-6-chloro-1-[2-(morpholin-4-yl)pyrimidin-5-yl]-2,3,4,9-tetrahydro-1H-pyrido[3,4-b]indole]"
0.3,14.7,"Cc1ccc([C@H]2c3[nH]c4ccc(Cl)cc4c3CCN2c2nc(C(F)(F)F)cc(C(F)(F)F)n2)c(F)c1F [Compound 407, (1S)-2-[4,6-bis(trifluoromethyl)pyrimidin-2-yl]-6-chloro-1-(2,3-difluoro-4-methylphenyl)-2,3,4,9-tetrahydro-1H-pyrido[3,4-b]indole]"
0.3,8.35,"FC(F)(F)c1nc(N2CCc3c([nH]c4ccc(Cl)cc34)[C@@H]2c2cnc(N3CCOCC3)nc2)nc(C(F)(F)F)n1 [Compound 406, (1S)-2-[4,6-bis(trifluoromethyl)-1,3,5-triazin-2-yl]-6-chloro-1-[2-(morpholin-4-yl)pyrimidin-5-yl]-2,3,4,9-tetrahydro-1H-pyrido[3,4-b]indole]"
0.2,5.88,"FC(F)(F)c1nc(N2CCc3c([nH]c4ccc(Cl)cc34)[C@@H]2c2ccc(N3CCOCC3)nc2)nc(C(F)(F)F)n1 [Compound 405, (1S)-2-[4,6-bis(trifluoromethyl)-1,3,5-triazin-2-yl]-6-chloro-1-[6-(morpholin-4-yl)pyridin-3-yl]-2,3,4,9-tetrahydro-1H-pyrido[3,4-b]indole]"
